Test results from US8598114B2, “Antimicrobial compounds” (priority 2007, dated 2013).
Where “and” joins values, the source holds several entries; their conditions need not be identical. Equal values may be shown once.

Experiments:
[1] = system: Trichophyton mentagrophytes; test: MIC, CLSI microbroth dilution (filamentous fungi); type: cell-based; set-up: unit not given beside the values; details: Trichophyton mentagrophytes - G.R. Micro collection
Procedure: (§1) M38-A Vol. 22 No. 16 Reference Method for Broth Dilution Antifungal Susceptibility Testing of Filamentous Fungi; Approved Standard.
(§2) Yeast and filamentous fungal MIC were performed in MOPS buffered RPMI 1640 medium (MOPS buffer obtained from Sigma Aldrich Ltd., RPMI 1640 obtained from Invitrogen Ltd, Paisley, Scotland). The yeast inocula were in the range 7.5×10^2-4×10^3 CFU/mL and the filamentous fungi approximately 8×10^3-1×10^5CFU/mL

Aspergillus niger = test: MIC, CLSI microbroth dilution (filamentous fungi); type: cell-based; set-up: unit not given beside the values; details: Aspergillus niger - G.R. Micro collection
Procedure: as §1, §2

[2] = system: Trichophyton interdigitale; test: MIC, CLSI microbroth dilution (filamentous fungi); type: cell-based; set-up: unit not given beside the values; details: Trichophyton interdigitale - G.R. Micro collection
Procedure: as §1, §2

Eggerthella lenta = test: MIC, CLSI microbroth dilution (anaerobic bacteria); type: cell-based; set-up: unit not given here; details: Eggerthella lenta - ATCC 43055, SBB (Table 2)
Corynebacterium jeikeium = test: MIC, CLSI microbroth dilution (aerobic bacteria); type: cell-based
Source text: (§3) Cation-adjusted Mueller-Hinton broth (Oxoid Ltd., Basingstoke, UK and Trek Diagnostic Systems Ltd., East Grinstead, UK) (supplemented with 5% laked horse blood for Streptococcus spp., Corynebacterium jeikeium and Listeria monocytogenes) was used for aerobic bacteria, with an initial inoculum of approximately 10^5 colony-forming units (CFU)/mL.

Enterococcus faecium = test: MIC, CLSI microbroth dilution (aerobic bacteria); type: cell-based
Source text: as §3

[3] = system: Staphylococcus haemolyticus; test: MIC, CLSI microbroth dilution (aerobic bacteria); type: cell-based; details: Staphylococcus haemolyticus - antibiotic susceptible clinical isolate
Source text: as §3

Acinetobacter baumanii = test: MIC, CLSI microbroth dilution (aerobic bacteria); type: cell-based; details: Acinetobacter baumanii - antibiotic-susceptible clinical isolate
Source text: as §3

Enterococcus gallinarum = test: MIC, CLSI microbroth dilution (aerobic bacteria); type: cell-based; details: Enterococcus gallinarum vancomycin-resistant (VanC) clinical isolate
Source text: as §3

Haemophilus influenzae = test: MIC, CLSI microbroth dilution (Haemophilus test medium)
Clostridium difficile = test: MIC, CLSI microbroth dilution (anaerobic bacteria); type: cell-based; details: Clostridium difficile - antibiotic-susceptible clinical isolate
Procedure: M11-A6 Vol. 24 No. 2 Methods for Antimicrobial Susceptibility Testing of Anaerobic Bacteria; Approved Standard-Sixth Edition.
Supplemented Brucella broth (SBB) was used for the anaerobic strains with an inoculum of approximately 10^6 CFU/mL. SBB is a broth consisting of 1% peptone, 0.5% ‘Lab-lemco’, 1% glucose and 0.5% sodium chloride supplemented with 5 […] vitamin K (both obtained from Sigma Aldrich Ltd.)

Candida albicans = test: MIC, CLSI microbroth dilution (yeasts); type: cell-based; set-up: unit not given beside the values
Procedure: (§4) M27-A2 Vol. 22 No. 15 Reference Method for Broth Dilution Antifungal Susceptibility Testing of Yeasts; Approved Standard-Second Edition.
as §2

Candida tropicalis = test: MIC, CLSI microbroth dilution (yeasts); type: cell-based; set-up: unit not given beside the values; details: Candida tropicalis ATCC750 - reference strain
Procedure: as §4, §2

Candida parapsilosis = test: MIC, CLSI microbroth dilution (yeasts); type: cell-based; set-up: unit not given beside the values
Procedure: as §4, §2

[4] = system: Candida (Issatchenkia) krusei; test: MIC, CLSI microbroth dilution (yeasts); type: cell-based; set-up: unit not given beside the values
Procedure: as §4, §2

Cryptococcus neoformans = test: MIC, CLSI microbroth dilution (yeasts); type: cell-based; set-up: unit not given beside the values; details: Cryptococcus neoformans - G.R. Micro collection
Procedure: as §4, §2

Pseudomonas aeruginosa = test: MIC, CLSI microbroth dilution (aerobic bacteria); type: cell-based; set-up: unit not given beside the values
Source text: as §3
(§5) To evaluate whether freezing affected the activity of the peptides some MIC determinations were repeated using plates containing freshly-prepared Mueller-Hinton broth.

Escherichia coli = test: MIC, CLSI microbroth dilution (aerobic bacteria); type: cell-based; set-up: unit not given beside the values
Source text: as §3, §5

Enterococcus faecalis = test: MIC, CLSI microbroth dilution (aerobic bacteria); type: cell-based; set-up: unit not given beside the values
Source text: as §3, §5

Bacteroides fragilis = test: MIC, CLSI microbroth dilution (anaerobic bacteria); type: cell-based; set-up: unit not given here; details: Bacteroides fragilis - ATCC 25285, SBB (Table 2)

For `N=C(N)NCCCC(N)C(=O)NC(Cc1ccc(-c2ccc3ccccc3c2)cc1)C(=O)NC(CCCNC(=N)N)C(=O)NCCc1ccccc1` (centres unmarked) [Compound 1], the MIC [1] was 16, the MIC (Aspergillus niger) was 4 and the MIC [2] was 8. It also gave an MIC (Eggerthella lenta) of 16, an MIC (Corynebacterium jeikeium; Corynebacterium jeikeium - antibiotic-susceptible clinical isolate) of 32 and an MIC (Corynebacterium jeikeium; Corynebacterium jeikeium - multi-drug resistant clinical isolate) of 32. For the same molecule, the MIC (Enterococcus faecium; Enterococcus faecium vancomycin-resistant (VanA) clinical isolate) was 16, the MIC (Enterococcus faecium; Enterococcus faecium vancomycin-resistant (VanB) clinical isolate) was 8 and the MIC (Enterococcus faecium; Enterococcus faecium vancomycin-susceptible clinical isolate) was 8. The MIC [3] was 4, the MIC (Acinetobacter baumanii) was 64 and the MIC (Enterococcus gallinarum) was 4. The MIC (Haemophilus influenzae; Haemophilus influenzae - β-lactamase negative clinical isolate) was “≧128”, the MIC (Haemophilus influenzae; Haemophilus influenzae - β-lactamase positive clinical isolate) was “≧128” and the MIC (Haemophilus influenzae; Haemophilus influenzae β-lactamase negative ampicillin-resistant) was “≧128”. It also gave an MIC (Clostridium difficile) of 32, an MIC (Candida albicans; Candida albicans ATCC24433 - reference strain) of 2 and an MIC (Candida albicans; Candida albicans ATCC90028 - reference strain) of 2. It also gave an MIC (Candida tropicalis) of 2, an MIC (Candida parapsilosis; Candida parapsilosis ATCC 22019, RPMI 1640 (Table 2)) of 4 and an MIC (Candida parapsilosis; Candida parapsilosis ATCC90018 - reference strain) of 4. For the same molecule, the MIC ([4]; Candida (Issatchenkia) krusei ATCC6258 - reference strain) was 4, the MIC ([4]; F05 Candida (Issatchenkia) krusei ATCC 6258 reference strain, repeat results (Table 2), RPMI 1640) was 8 and the MIC (Cryptococcus neoformans) was 4. The MIC (Pseudomonas aeruginosa; GN10 Pseudomonas aeruginosa ATCC 27853 type strain, repeat results (Table 2), Fresh MHB) was 8, the MIC (Pseudomonas aeruginosa; GN10 Pseudomonas aeruginosa ATCC 27853 type strain, repeat results (Table 2), Frozen MHB) was 16 and 32 and the MIC (Pseudomonas aeruginosa; Pseudomonas aeruginosa - multi-drug resistant clinical isolate) was 32. For the same molecule, the MIC (Pseudomonas aeruginosa; Pseudomonas aeruginosa ATCC27853 - antibiotic-susceptible type) was 16, the MIC (Escherichia coli; Escherichia coli - multi-drug resistant clinical isolate) was 32 and the MIC (Escherichia coli; Escherichia coli ATCC25922 - antibiotic-susceptible type strain) was 32. For the same molecule, the MIC (Escherichia coli; Escherichia coli ATCC32518 - β-lactamase positive type strain) was 32, the MIC (Escherichia coli; GN01 Escherichia coli ATCC 25922 type strain, repeat results (Table 2), Fresh MHB) was 16 and the MIC (Escherichia coli; GN01 Escherichia coli ATCC 25922 type strain, repeat results (Table 2), Frozen MHB) was 32. The MIC (Enterococcus faecalis; Enterococcus faecalis - ATCC 29212 antibiotic-susceptible control (Table 1)) was 4, the MIC (Enterococcus faecalis; Enterococcus faecalis high-level gentamicin-resistant clinical isolate) was 16 and the MIC (Enterococcus faecalis; Enterococcus faecalis vancomycin-resistant (VanA) clinical isolate) was 16. For the same molecule, the MIC (Enterococcus faecalis; Enterococcus faecalis vancomycin-resistant (VanB) clinical isolate) was 16, the MIC (Enterococcus faecalis; Enterococcus faecalis vancomycin-susceptible clinical isolate) was 8 and the MIC (Enterococcus faecalis; GP11 Enterococcus faecalis - ATCC 29212 control strain, repeat results (Table 2), Fresh MHB) was 4. For the same molecule, the MIC (Enterococcus faecalis; GP11 Enterococcus faecalis - ATCC 29212 control strain, repeat results (Table 2), Frozen MHB) was 8 and the MIC (Bacteroides fragilis) was 64.
